Results as given in the NIST ThermoML archive (doi:10.1021/je300148f).

Conditions: Liquid, isochoric method

CCC [propane]
Conditions	mass density [kg/m3]
207.35 K, 1466.9 kPa	609.37
208.31 K, 2745.8 kPa	609.32
209.06 K, 3635.6 kPa	609.28
209.75 K, 4364.7 kPa	609.25
215.17 K, 10724 kPa	608.98
222.43 K, 1045.6 kPa	592.03
222.75 K, 19646 kPa	608.63
223.37 K, 2016.7 kPa	591.98
224.52 K, 3087.1 kPa	591.93
225.47 K, 4153.8 kPa	591.89
226.91 K, 5632.5 kPa	591.82
231.06 K, 30008 kPa	608.23
231.07 K, 10051 kPa	591.62
239.51 K, 39217 kPa	607.87
240.49 K, 1194 kPa	571.45
240.67 K, 19671 kPa	591.21
240.92 K, 1528.8 kPa	571.44
242.87 K, 3265.5 kPa	571.39
244.55 K, 4758.9 kPa	571.35
245.44 K, 5554 kPa	571.33
250.1 K, 9711.4 kPa	571.2
250.12 K, 29984 kPa	590.79
251.11 K, 51133 kPa	607.38
259.96 K, 1060.8 kPa	547.54
261.06 K, 19770 kPa	571.13
261.18 K, 40016 kPa	590.35
261.19 K, 1975 kPa	547.51
262.52 K, 2951.9 kPa	547.48
262.52 K, 3059.7 kPa	547.47
263.78 K, 4004 kPa	547.44
265.28 K, 5120.2 kPa	547.4
266.44 K, 5840.1 kPa	547.37
267.87 K, 6954.7 kPa	547.34
270.11 K, 49092 kPa	589.98
270.22 K, 1044.7 kPa	533.77
271.68 K, 2041.5 kPa	533.71
272.12 K, 10829 kPa	547.66
272.12 K, 30057 kPa	570.94
272.13 K, 10235 kPa	547.22
273.11 K, 3025.3 kPa	533.66
274.51 K, 3979.1 kPa	533.61
276.2 K, 5186.1 kPa	533.54
283.08 K, 995.2 kPa	515.52
283.43 K, 38987 kPa	570.26
283.64 K, 10260 kPa	533.26
284.77 K, 2002.1 kPa	515.46
284.98 K, 19876 kPa	546.88
286.56 K, 3090.5 kPa	515.39
288.23 K, 4086.1 kPa	515.33
289.9 K, 5086.2 kPa	515.27
295.92 K, 49573 kPa	569.78
297.68 K, 1075 kPa	493.21
298.14 K, 10031 kPa	514.99
298.15 K, 10038 kPa	514.99
298.15 K, 19981 kPa	532.71
298.15 K, 30027 kPa	546.51
298.15 K, 30100 kPa	546.7
298.18 K, 19921 kPa	532.75
298.19 K, 20084 kPa	532.74
299.62 K, 2037.9 kPa	493.14
301.57 K, 3036.9 kPa	493.08
303.56 K, 4053.8 kPa	493.01
305.53 K, 5060.2 kPa	492.95
311.44 K, 39238 kPa	545.97
313.68 K, 30193 kPa	532.17
315.23 K, 2005.2 kPa	466.11
315.23 K, 9905.5 kPa	492.64
315.23 K, 10017 kPa	492.63
315.23 K, 19842 kPa	514.41
317.42 K, 2930.2 kPa	466.04
319.89 K, 3981.7 kPa	465.97
322.25 K, 4976.5 kPa	465.9
332.01 K, 29682 kPa	513.86
333.97 K, 19538 kPa	492.04
334.14 K, 9861.6 kPa	465.55
344.57 K, 49972 kPa	531.11
353.14 K, 29253 kPa	491.45
353.14 K, 42004 kPa	513.17
353.15 K, 17921 kPa	464.99
